Experimental data reported in ChEMBL document CHEMBL1126639, “Centrally acting serotonergic and dopaminergic agents. 2. Synthesis and structure-activity relationships of 2,3,3a,4,9,9a-hexahydro-1H-benz[f]indole derivatives” (J Med Chem, 1993).

Columns and labels:
[1] = system: Mus musculus; experiment: Antagonism of apomorphine for 0-10 minutes in reserpinized mice when a dose of 0.4 micro mol/kg is administered intraperitoneally; type: functional
[2] = system: Mus musculus; experiment: Antagonism of apomorphine for 10-20 minutes in reserpinized mice when a dose of 3.7 micro mol/kg is administered intraperitoneally; type: functional
[3] = system: Mus musculus; experiment: Antagonism of apomorphine for 10-20 minutes in reserpinized mice when a dose of 37 micro mol/kg is administered intraperitoneally; type: functional
[4] = system: Mus musculus; experiment: Ability to stimulate dopaminergic systems by effect on locomotor activity in reserpinized mice when a dose of 0.4 micro mol/kg is administered intraperitoneally; type: functional
[5] = system: Mus musculus; experiment: Antagonism of apomorphine for 0-10 minutes in reserpinized mice when a dose of 37 micro mol/kg is administered intraperitoneally; type: functional
[6] = system: Mus musculus; experiment: Ability to stimulate dopaminergic systems by effect on locomotor activity in reserpinized mice when a dose of 3.7 micro mol/kg is administered intraperitoneally; type: functional
[7] = system: Rattus norvegicus; experiment: Inhibition of firing rates of dopaminergic neurons in the substantia nigra pars compacta by intravenous injection in rats.; type: functional
[8] = system: Mus musculus; experiment: Maximum decrease in temperature when compound is administered through peroral route; type: functional
[9] = target: T1, D(2) dopamine receptor (Rattus norvegicus, UniProt P61169); experiment: Binding affinity for [3H]raclopride-labeled dopamine receptor D2 in rat striatum; type: tissue-based
[10] = system: Mus musculus; experiment: Ability to stimulate dopaminergic systems by effect on locomotor activity in reserpinized mice when a dose of 37 micro mol/kg is administered intraperitoneally; type: functional
[11] = system: Mus musculus; experiment: Antagonism of apomorphine for 0-10 minutes in reserpinized mice when a dose of 3.7 micro mol/kg is administered intraperitoneally; type: functional
[12] = target: D(2) dopamine receptor (Homo sapiens, UniProt P14416); experiment: Binding affinity against [3H]U-86,170-labeled dopamine receptor D2 in cloned CHO cells; type: cell-based
[13] = system: Mus musculus; experiment: Antagonism of apomorphine in reserpinized mice when a dose of 0.4 micro mol/kg is administered intraperitoneally; type: functional
[14] = system: Mus musculus; experiment: Antagonism of apomorphine in reserpinized mice when a dose of 3.7 micro mol/kg is administered intraperitoneally; type: functional
[15] = system: Mus musculus; experiment: Effective dose on hypothermia in mouse when administered subcutaneously; type: functional
[16] = system: Rattus norvegicus; experiment: Effect on the synthesis rates of dopamine (DOPA accumulation) in the rat ventral limbic brain region at 3.7 uM/kg.; type: functional, Limbic system
[17] = system: Mus musculus; experiment: Antagonism of apomorphine in reserpinized mice when a dose of 37 micro mol/kg is administered intraperitoneally; type: functional
[18] = system: Mus musculus; experiment: Maximum decrease in temperature when compound is administered subcutaneously; type: functional
[19] = organism: Rattus norvegicus; experiment: Effect on the synthesis rates of serotonin (5-HTP accumulation) in the rat ventral limbic brain region […]; type: functional, Limbic system
[20] = system: Mus musculus; experiment: Effective dose on hypothermia in mouse when administered through peroral route; type: functional
[21] = system: Mus musculus; experiment: Time of effect in the isolation-induced aggression behavioral assay in the mouse when a dose of 11 umol/kg is administered intraperitoneally; type: functional
[22] = system: Mus musculus; experiment: (§1) Time of effect in the face-to-face behavioral assay in the mouse when a dose of […] is administered perorally; type: functional
[23] = system: Mus musculus; experiment: Time of effect in the isolation-induced aggression behavioral assay in the mouse when a dose of 3.6 micro mol/kg is administered perorally; type: functional
[24] = system: Mus musculus; experiment: Time of effect in the isolation-induced aggression behavioral assay in the mouse when a dose of 0.0 micro mol/kg is administered perorally; type: functional
[25] = system: Rattus norvegicus; experiment: Effect on the synthesis rates of dopamine (DOPA accumulation) in the rat ventral limbic brain region at 10.7 uM/kg.; type: functional, Limbic system
[26] = system: Mus musculus; experiment: Time of effect in the isolation-induced aggression behavioral assay in the mouse when a dose of 1.1 micro mol/kg is administered perorally; type: functional
[27] = system: Mus musculus; experiment: as §1; type: functional; remark: listed apart in the source
[28] = system: Mus musculus; experiment: Time of effect in the isolation-induced aggression behavioral assay in the mouse when a dose of 36 micro mol/kg is administered intraperitoneally; type: functional
[29] = system: Rattus norvegicus; experiment: Inhibition of firing rates of serotonergic neurons in the dorsal raphe nucleus by intravenous injection in rats; type: functional
[30] = system: Mus musculus; experiment: Time of effect in the isolation-induced aggression behavioral assay in the mouse when a dose of 0.0 umol/kg is administered intraperitoneally; type: functional
[31] = system: Mus musculus; experiment: Time of effect in the face-to-face behavioral assay in the mouse when a dose of 0.4 umol/kg is administered perorally; type: functional
[32] = system: Mus musculus; experiment: Time of effect in the isolation-induced aggression behavioral assay in the mouse when a dose of 11 micro mol/kg is administered perorally; type: functional
[33] = system: Rattus norvegicus; experiment: Inhibition of firing rates of dopaminergic neurons in the substantia nigra pars compacta by intravenous injection in rats; type: functional
[34] = target: T1, D(2) dopamine receptor; experiment: Inhibitory concentration against [3H]raclopride-labeled dopamine receptor D2 in rat striatum; type: tissue-based
[35] = system: Rattus norvegicus; experiment: Effect on the synthesis rates of serotonin (5-HTP accumulation) in the rat ventral limbic brain region 10.7 umol/kg.; type: functional, Limbic system
[36] = system: Mus musculus; experiment: Time of effect in the isolation-induced aggression behavioral assay in the mouse when a dose of 36 micro mol/kg is administered perorally; type: functional
[37] = organism: Felis catus; experiment: Percent of arterial blood pressure at sympathetic nerve activity (SND) dose value was determined; type: functional
[38] = system: Felis catus; experiment: Maximum decrease of arterial blood pressure at sympathetic nerve activity (SND) in anesthetized cat has been observed following 1 mg/kg dose; type: functional; parameters: scale not given: the % may be the effect or the level left
[39] = system: Felis catus; experiment: Effective dose at which the sympathetic nerve activity (SND) has been reduced to 50% of the pretreatment value in anesthetized cat; type: functional
[40] = system: Felis catus; experiment: Maximum decrease of sympathetic nerve activity (SND) in anesthetized cat; type: functional; parameters: scale not given: the % may be the effect or the level left
[41] = system: Rattus norvegicus; experiment: Effect on the synthesis rates of dopamine (DOPA accumulation) in the rat ventral limbic brain region at 3.4 uM/kg.; type: functional, Limbic system
[42] = system: Mus musculus; experiment: Effective dose on hypothermia in mouse when administered subcutaneously (95% confidence levels); type: functional; conditions: sc
[43] = system: Rattus norvegicus; experiment: Effect on the synthesis rates of serotonin (5-HTP accumulation) in the rat ventral limbic brain region 3.4 umol/kg.; type: functional, Limbic system
[44] = Mus musculus, po, read-out: ED50

T1 sequence (P61169 whole entry): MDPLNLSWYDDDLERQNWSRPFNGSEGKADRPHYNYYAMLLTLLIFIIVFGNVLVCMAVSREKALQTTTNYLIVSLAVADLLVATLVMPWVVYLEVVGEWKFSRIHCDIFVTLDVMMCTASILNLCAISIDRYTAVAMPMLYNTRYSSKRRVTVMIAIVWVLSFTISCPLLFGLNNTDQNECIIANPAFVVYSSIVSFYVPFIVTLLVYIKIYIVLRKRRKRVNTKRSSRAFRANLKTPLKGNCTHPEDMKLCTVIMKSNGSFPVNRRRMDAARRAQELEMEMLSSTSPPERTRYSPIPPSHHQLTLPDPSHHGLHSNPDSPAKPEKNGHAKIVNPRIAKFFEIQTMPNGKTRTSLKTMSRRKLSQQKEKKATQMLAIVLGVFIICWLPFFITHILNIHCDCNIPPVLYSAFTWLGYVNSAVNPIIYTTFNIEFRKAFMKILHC
Chain of D(2) dopamine receptor (Homo sapiens, UniProt P14416) (P14416 whole entry): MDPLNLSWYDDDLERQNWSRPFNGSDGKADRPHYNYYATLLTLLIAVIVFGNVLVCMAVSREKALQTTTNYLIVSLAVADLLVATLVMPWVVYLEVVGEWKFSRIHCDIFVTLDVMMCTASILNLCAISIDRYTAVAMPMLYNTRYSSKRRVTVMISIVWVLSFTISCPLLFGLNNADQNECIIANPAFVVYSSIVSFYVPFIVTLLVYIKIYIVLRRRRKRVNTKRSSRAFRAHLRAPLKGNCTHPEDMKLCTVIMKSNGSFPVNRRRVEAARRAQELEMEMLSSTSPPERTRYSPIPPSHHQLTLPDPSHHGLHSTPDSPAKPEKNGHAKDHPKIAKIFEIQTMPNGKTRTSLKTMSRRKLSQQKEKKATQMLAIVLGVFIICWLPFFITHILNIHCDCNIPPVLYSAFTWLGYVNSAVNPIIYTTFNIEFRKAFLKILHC

## CCCN1CC[C@@H]2Cc3c(O)cccc3C[C@H]21
[1]
  Locomotor activity: 48
[2]
  Locomotor activity: 62
[3]
  Locomotor activity: 53
[4]
  Locomotor activity: 739
[5]
  Locomotor activity: 93
[6]
  Locomotor activity: 1014
[7]
  ED50: 0.0014 µmol/kg
[8]
  Max temperature decrease: 10.9
[9]
  Ki: 2 nM
[10]
  Locomotor activity: 1625
[11]
  Locomotor activity: 52
[12]
  Ki: 0.5 nM
[13]
  Locomotor activity: 56
[14]
  Locomotor activity: 47
[15]; Mus musculus, sc, read-out: ED50
  ED50: 0.03 µmol/kg
[16]
  Control: -45%
[17]
  Locomotor activity: 43
[18]
  Max temperature decrease: 7.5
[19]
  Control: -9.5%
[20]; [44]
  ED50: 0.04 µmol/kg

## C=CCN1CC[C@@H]2Cc3c(cccc3OC)C[C@H]21
[21]
  Time: 570 s
[22]
  Time: 1 s
[23]
  Time: 198 s
[24]
  Time: 5 s
[25]
  Control: -37%
[8]
  Max temperature decrease: 5.6
[26]
  Time: 109 s
[27]
  Time: 1.5 s
[28]
  Time: 600 s
[29]
  ED50: 0.08 µM/kg
[30]
  Time: 5 s
[31]
  Time: 1.7 s
[15]
  ED50: 0.6 µM/kg
[32]
  Time: 257 s
[33]
  ED50: 0.05 µmol/kg
[34]
  IC50: > 1000 nM
[18]
  Max temperature decrease: 4.5
[35]
  Control: -41%
[36]
  Time: 397 s
[20]
  ED50: 1.1 µM/kg

## CCCN1[C@@H](C)C[C@@H]2Cc3cccc(OC)c3C[C@@H]21 (racemic)
[37]
  BP: 85%
[38]
  Control: 63%
[39]
  ED50: 1.18 µmol/kg
[8]
  Max temperature decrease: 3.1
[12]
  Ki: 464 nM
[40]
  Control: 25%
[41]
  Control: 32%
[34]
  IC50: > 1000 nM
[42]
  ED50: 4.4 µmol/kg
[18]
  Max temperature decrease: 7.8
[20]; [44]
  ED50: > 101 µmol/kg
[43]
  Control: -44%
